Experimental data as given in US20110055943A1, “NOVEL THERAPEUTIC TARGETS IN INFLAMMATORY BOWEL DISEASE” (SALIX PHARMACEUTICALS, LTD., priority 2007, published 2011).

How the values were obtained:
CYP3A = experiment: Pharmacokinetics of MDZ in hPXR mice pretreated with RIFax; settings: MDZ 2.5 mg/kg oral; for AUC0-90 min / Cmax / Tmax: serum; for AUC0-90 min ratio RIFax/Cont / Cmax ratio RIFax/Cont / Tmax ratio RIFax/Cont: hPXR mice, RIFax pretreated vs control
Description: Blood samples were collected from suborbital veins using heparinized tubes at pre-dose, 5, 10, 20, 30, 60, and 90 min after administration of MDZ. Serum was separated by centrifugation at 8,000 g for 10 min. For MDZ and 1′-OH-MDZ extraction, 50 μl of serum was mixed with 150 μl of phosphate-buffered saline, 200 μl of ethyl acetate, and 200 μl of methyl t-butyl ether. The mixture was centrifuged at 3,000 rpm for 5 min at 4° C. The organic layer was then transferred to a new tube, dried with N2, and reconstituted in 100 μl of 70% aqueous methanol and 30% H2O containing 0.1% formic acid. […] Pharmacokinetic parameters for MDZ and 1′-OH-MDZ were estimated from the plasma concentration-time data by a non-compartmental approach using WinNonlin (Pharsight, Mountain View, Calif.). The area under the serum concentration-time curve (AUC0-90 min) was calculated by the trapezoidal rule. The maximum concentration in serum (Cmax) and its corresponding time (Tmax) were obtained from the original data.

MRP2 [1] = settings: mouse PXR ligand; cited from earlier work
MRP2 [2] = settings: rat hepatocytes; cited from earlier work
PXR = target: T1, PXR (Mus musculus, UniProt O54915); settings: dextran sulfate sodium (DSS)-induced BD mouse model; cited from earlier work
T1 construct: host or cells: mice (DSS colitis model)
T1 sequence (O54915 1-431): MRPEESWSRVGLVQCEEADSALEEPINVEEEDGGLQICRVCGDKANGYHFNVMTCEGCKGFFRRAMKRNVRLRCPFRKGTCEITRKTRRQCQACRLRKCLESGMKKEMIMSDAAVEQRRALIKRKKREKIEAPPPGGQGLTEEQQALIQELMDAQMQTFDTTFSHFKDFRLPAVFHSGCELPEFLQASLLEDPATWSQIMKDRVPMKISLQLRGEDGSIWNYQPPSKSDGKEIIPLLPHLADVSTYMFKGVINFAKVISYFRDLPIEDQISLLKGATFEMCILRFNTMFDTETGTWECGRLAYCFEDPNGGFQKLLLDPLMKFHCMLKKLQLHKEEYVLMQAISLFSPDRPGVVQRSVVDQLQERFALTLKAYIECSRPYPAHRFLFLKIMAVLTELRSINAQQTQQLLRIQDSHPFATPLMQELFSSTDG

[3] = Intestinal tract distribution of RIF and RIFax in mice (intestinal contents, LC-MS/MS); assay type: in vivo; settings: mouse, in vivo, po, 10 mg/kg
Description: (§1) The maximum concentration in serum (Cmax) was obtained from the original data. […] Intestinal contents were weighted, and homogenized in methanol (100 mg/ml). The homogenate was centrifuged at 14,000 rpm for 10 min at 4° C.
(§2) The mass spectrometer was operated in the turbo ion spray mode with positive ion detection. The turbo ion spray temperature was maintained at 300° C., and a voltage of 4.8 kV was applied to the sprayer needle. N2 was used as the turbo ion spray and nebulizing gas.

in vivo = assay type: in vivo; settings: mouse, in vivo, po, 10 mg/kg
Description: as §1, §2

[4] = Cont: hPXR mice without RIFax pretreatment
[5] = hPXR mice pretreated with RIFax 10 mg/kg/day for 3 days

## OCc1ncc2n1-c1ccc(Cl)cc1C(c1ccccc1F)=NC2 [1′-OH-MDZ, 1′-Hydroxymidazolam]
CYP3A; [4]
  AUC0-90 min: 32.4 ± 3.0 µmol·min/L
  Cmax: 562 ± 4.9 nM
  Tmax: 25.0 ± 7.1 min
CYP3A; [5]
  AUC0-90 min: 36.5 ± 4.2 µmol·min/L
  Cmax: 823 ± 55.2 nM
  Tmax: 7.5 ± 3.5 min
CYP3A
  AUC0-90 min ratio RIFax/Cont: 1.1
  Cmax ratio RIFax/Cont: 1.5
  Tmax ratio RIFax/Cont: 0.3

## Cc1ncc2n1-c1ccc(Cl)cc1C(c1ccccc1F)=NC2 [MDZ, midazolam]
CYP3A; [4]
  AUC0-90 min: 8.0 ± 0.4 µmol·min/L
  Cmax: 477 ± 40.3 nM
  Tmax: 10.0 ± 0.0 min
CYP3A; [5]
  AUC0-90 min: 8.9 ± 0.7 µmol·min/L
  Cmax: 383 ± 19.1 nM
  Tmax: 12.5 ± 10.6 min
CYP3A
  AUC0-90 min ratio RIFax/Cont: 1.1
  Cmax ratio RIFax/Cont: 0.8
  Tmax ratio RIFax/Cont: 1.3

## CC(=O)[C@H]1[C@H](C#N)C[C@H]2[C@@H]3CC=C4C[C@@H](O)CC[C@]4(C)[C@H]3CC[C@@]21C [PCN]
MRP2 [1]
  MRP2 induction: not significantly induced
MRP2 [2]
  MRP2 activation: activated
PXR
  DSS-induced colitis: significantly prevented

## CO[C@H]1/C=C/O[C@@]2(C)Oc3c(C)c(O)c4c(O)c(c(/C=N/N5CCN(C)CC5)c(O)c4c3C2=O)NC(=O)/C(C)=C\C=C\[C@H](C)[C@H](O)[C@@H](C)[C@@H](O)[C@@H](C)[C@H](OC(C)=O)[C@@H]1C [RIF, 3-(4-Methylpiperazinyliminomethyl)rifamycin SV]
[3]
  concentration in the small intestine (content): below 20 μg/g
In vivo
  Cmax: 2750 nM
